pIC50: −log10 of the molar value.
Tests used:
Lp(a) assembly = target: T1, Lp(a) assembly (Homo sapiens, UniProt P08519); assay: ELISA assay on screening Lp(a) assembly inhibition; assay type: cell-based; settings: HepG2 cells overexpressing ApoA protein, 24h incubation, ELISA of culture supernatant
T1 construct: expressed in transfected cells; host or cells: HepG2 cells overexpressing apo(a)
Protocol: Test Example 1 and Methods of ELISA Assay on Screening Lp(a) Assembly Inhibition
1. Reagents, Consumables, Instruments
2. Cell Culture Media Preparation 2.1. Complete Cell Culture Media
3. Test Procedure • 3.1 Cell Culture and Passage • 1) Preheated the culture media, DPBS, and pancreatin in a 37°C water bath in advance. • 2) Digested cells with pancreatin, transferred the cell suspension to a 15 mL centrifuge tube, and centrifuged at 1000 rpm for 5 min. • 3) Resuspended the cells with culture media and transferred the cell suspension to a new T75 cell culture flask. • 4) Cultured at 37°C in a 5% CO2 incubator. • 3.2. Cell Seeding and Drug Administration • 1) Seeded HepG2 cells overexpressing of ApoA protein into a 96-well plate at 100 µL per well and incubated overnight for attachment. • 2) Replaced with fresh culture media the next day, then added diluted compounds, and cultured the cell plate in a 5% CO2, 37°C incubator for 24h. • 3.3. Preparation of Cell Culture Supernatant • 1) Added 10 µL of 1.5 M EACA to each well. • 2) Centrifuged at 1000 rpm for 1 min, and transferred 100 µL of cell culture supernatant to a pre-coated ELISA plate. • 3.4. […]

Lp(a) = assay: Humanized mouse Lp(a) inhibition test; assay type: in vivo, humanized Lp(a) transgenic mouse; settings: oral, 5 mg/kg once daily for 3 consecutive days, blood 8 h after last dose
Protocol: Test Example 3 and Humanized Mouse Lp(a) Inhibition Test
The in vivo pharmacodynamics of the compounds in reducing Lp(a) was evaluated in a humanized Lp(a) transgenic mouse model.Lp(a) mice were obtained by crossing mice expressing humanized apoB-100 with mice expressing humanized apo(a) containing 16 Kringle repeats.Female mice aged 8-9 weeks were selected for the test.Housing conditions: standard light cycle (12 h light/12 h dark), temperature 20-25°C, humidity 40-70%, free access to water and normal diet.
One day before the test, mice were divided into vehicle control group and test article group (n=5/group) according to body weight and baseline plasma Lp(a) concentration. […] Eight hours after the last dose, 10 µL of blood was collected from the tail vein and transferred to a 1.5 mL centrifuge tube containing 90 µL of normal saline, mixed well, and left to stand on ice for 30min.The above samples were centrifuged at 4°C, 3000 rpm for 10 min, and the supernatant was collected and placed on ice.The Lp(a) concentration in the supernatant was measured by double-antibody sandwich ELISA using an anti-apo(a) capture antibody and an HRP-conjugated anti-ApoB detection antibody, with TMB for color development. The reaction was stopped with 1 N sulfuric acid, and the OD value was read at 450 nm on a Tecan microplate reader.Inhibition rate was calculated for each dosing group. […]

[1] = Safety assessment test in rats; assay type: in vivo, SD rats; settings: oral gavage, 300 mg/kg and 1000 mg/kg once daily for 14 consecutive days
Protocol: Test Example 5 and Safety Assessment Test in Rats
The safety of the compounds of the present invention was evaluated by oral gavage administration to SD rats as the test animals.
Test method: 50 SD rats (half males and half females) were randomly divided into vehicle control group and test article group according to their body weight. The vehicle saline or the compound of the present invention or LY3473329 (300 mg/kg, 1000 mg/kg) was administered orally once daily for 14 consecutive days.

T1 sequence (P08519 20-2040): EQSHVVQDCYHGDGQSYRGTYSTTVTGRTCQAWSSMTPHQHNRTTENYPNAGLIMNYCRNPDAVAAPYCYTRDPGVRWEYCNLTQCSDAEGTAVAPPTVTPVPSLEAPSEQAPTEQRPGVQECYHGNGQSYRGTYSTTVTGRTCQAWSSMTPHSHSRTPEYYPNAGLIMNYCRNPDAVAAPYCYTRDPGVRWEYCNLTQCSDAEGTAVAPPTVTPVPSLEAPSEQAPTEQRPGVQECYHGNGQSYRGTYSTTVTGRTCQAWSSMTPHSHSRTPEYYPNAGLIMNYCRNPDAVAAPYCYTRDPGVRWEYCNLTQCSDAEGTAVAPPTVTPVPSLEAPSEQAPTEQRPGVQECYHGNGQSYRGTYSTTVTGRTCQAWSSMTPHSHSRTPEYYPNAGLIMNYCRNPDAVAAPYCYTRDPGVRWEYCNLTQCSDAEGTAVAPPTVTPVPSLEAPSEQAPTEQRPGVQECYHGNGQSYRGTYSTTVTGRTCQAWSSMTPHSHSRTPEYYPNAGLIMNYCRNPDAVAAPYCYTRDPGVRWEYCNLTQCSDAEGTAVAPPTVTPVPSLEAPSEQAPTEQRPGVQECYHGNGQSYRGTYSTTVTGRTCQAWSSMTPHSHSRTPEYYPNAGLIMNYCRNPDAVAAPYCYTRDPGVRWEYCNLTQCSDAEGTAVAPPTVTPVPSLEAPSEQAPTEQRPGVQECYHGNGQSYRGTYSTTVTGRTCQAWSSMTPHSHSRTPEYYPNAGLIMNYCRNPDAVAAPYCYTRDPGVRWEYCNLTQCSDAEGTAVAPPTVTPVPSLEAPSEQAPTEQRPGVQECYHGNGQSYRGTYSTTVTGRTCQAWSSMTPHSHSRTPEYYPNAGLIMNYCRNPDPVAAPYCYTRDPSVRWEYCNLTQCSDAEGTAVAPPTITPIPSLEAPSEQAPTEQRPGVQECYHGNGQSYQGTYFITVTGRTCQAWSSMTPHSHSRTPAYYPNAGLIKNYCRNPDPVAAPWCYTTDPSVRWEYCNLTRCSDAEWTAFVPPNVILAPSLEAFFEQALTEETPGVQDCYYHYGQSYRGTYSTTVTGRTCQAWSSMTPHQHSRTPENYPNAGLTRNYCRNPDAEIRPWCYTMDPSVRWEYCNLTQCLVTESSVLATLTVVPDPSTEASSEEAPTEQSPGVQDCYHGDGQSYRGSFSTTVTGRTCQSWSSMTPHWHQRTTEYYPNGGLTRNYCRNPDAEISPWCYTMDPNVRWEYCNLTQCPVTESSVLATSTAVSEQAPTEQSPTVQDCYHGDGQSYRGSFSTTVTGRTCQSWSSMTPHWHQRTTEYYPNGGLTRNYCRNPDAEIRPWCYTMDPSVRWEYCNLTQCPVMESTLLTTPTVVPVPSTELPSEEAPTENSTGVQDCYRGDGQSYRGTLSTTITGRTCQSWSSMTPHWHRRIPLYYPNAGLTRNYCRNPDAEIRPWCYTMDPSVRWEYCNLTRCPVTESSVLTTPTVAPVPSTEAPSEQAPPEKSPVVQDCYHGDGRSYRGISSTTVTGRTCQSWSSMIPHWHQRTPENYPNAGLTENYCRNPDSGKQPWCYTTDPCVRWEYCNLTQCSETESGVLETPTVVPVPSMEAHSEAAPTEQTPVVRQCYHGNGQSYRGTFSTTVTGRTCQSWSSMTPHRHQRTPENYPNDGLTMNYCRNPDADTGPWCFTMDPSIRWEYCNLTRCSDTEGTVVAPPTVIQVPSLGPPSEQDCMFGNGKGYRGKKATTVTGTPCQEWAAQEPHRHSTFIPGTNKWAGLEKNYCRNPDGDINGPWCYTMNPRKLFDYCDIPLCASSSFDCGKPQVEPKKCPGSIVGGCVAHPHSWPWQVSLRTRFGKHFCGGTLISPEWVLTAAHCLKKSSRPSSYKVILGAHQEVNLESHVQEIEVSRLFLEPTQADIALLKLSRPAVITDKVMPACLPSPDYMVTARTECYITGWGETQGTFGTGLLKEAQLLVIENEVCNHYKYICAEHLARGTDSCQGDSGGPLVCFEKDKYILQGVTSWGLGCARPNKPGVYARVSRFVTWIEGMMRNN

Row | SMILES | pIC50 (Lp(a) assembly) | Lp(a) Inhibition Rate (Lp(a)) | changes in clinical observation, body weight and weight gain, food consumption, hematology, blood biochemistry, urine, organ weight and coefficients, and histopathology [1]
1 | O=C(O)[C@@H](Cc1ccc2c(CN(Cc3n[nH]c4cc(C[C@H](C(=O)O)[C@H]5CCNC5)ccc34)Cc3n[nH]c4cc(C[C@H](C(=O)O)[C@H]5CCNC5)ccc34)n[nH]c2c1)[C@H]1CCNC1 [Compound 136] | 8.67 |  | 
2 | O=C(O)[C@@H](Cc1cccc(CN(Cc2cccc(C[C@H](C(=O)O)[C@H]3CCNC3)c2)Cc2cccc(C[C@H](C(=O)O)[C@H]3CCNC3)c2)c1)[C@H]1CCNC1 [LY3473329] | 8.98 | 56% | no changes

Source: patent publication EP4810489A1, “SUBSTITUTED 2-(PYRROLIDIN-3-YL)ACETIC ACID DERIVATIVE, PREPARATION METHOD THEREFOR AND USE THEREOF” (Innovstone Therapeutics Limited, priority 2023, dated 2025)
